Results reported in BindingDB's records for patent WO2022129953 (HEPTARES THERAPEUTICS LIMITED, 2022).
pIC50: −log10 of the molar value. Values joined by “and” are separate entries in the source; they are usually repeats but may differ in a detail not shown here. Equal entries are not always repeated.

Target: Replicase polyprotein 1ab (Severe acute respiratory syndrome coronavirus 2, UniProt P0DTD1)
Assay: SARS-CoV-2 Mpro enzyme assay
Method: The activity of SARS-Cov-2 Mpro was determined in a Fluorescence Resonance Energy Transfer (FRET)-based enzymatic assay using FRET Substrate Dabcyl-KTSAVLQSGFRKM-E(Edans)-Amide. In brief, […] of test compounds (concentrations ranging from […]) was preincubated with […] of 20 nM (final concentration) Mpro enzyme for 30 min at 30 °C in an assay buffer containing 20 mM HEPES, 120 mM NaCI, 0.4 mM EDTA, and 4 mM DTT and 20% glycerol. Reaction was initiated by addition of 10 pL of […] (final concentration) of FRET substrate (Dabcyl-KTSAVLQSGFRKM-E (Edans)-Amide). The reaction was incubated for 1 h and the resulting fluorescent intensity was measured at Ex=360 nm/Em=490 nm at 30 °C using a SPARK 20M plate reader (Tecan). Boceprevir was used a reference standard compound. pICso and pKi were determined using 4PL GraphPad Prism and data were represented as a mean n=2± SD.

Question: How did the pIC50 turn out when NC(=O)C(=O)C(C[C@@H]1CCNC1=O)NC(=O)[C@H](CC1CC1)NC(=O)/C=C/c1ccc(Cl)cc1F (stereo partly specified) [WO2022129953, Example 1] was run?
Answer: The pIC50 was 7.89.

Question: NC(=O)C(=O)C(C[C@@H]1CCNC1=O)NC(=O)[C@H](CC1CC1)NC(=O)/C=C/c1ccccc1 (stereo partly specified) [WO2022129953, Example 2] was tested. Which pIC50 did it give?
Answer: The pIC50 was 7.70.

Question: NC(=O)C(=O)C(C[C@@H]1CCNC1=O)NC(=O)[C@H](CC1CC1)NC(=O)OCc1ccccc1 (stereo partly specified) [WO2022129953, Example 3] was tested. Which pIC50 did it give?
Answer: The pIC50 was 7.60.

Question: NC(=O)/C(=N\O)C(C[C@@H]1CCNC1=O)NC(=O)[C@H](CC1CC1)NC(=O)/C=C/c1ccccc1 (stereo partly specified) [WO2022129953, Example 4] was tested. Which pIC50 did it give?
Answer: The pIC50 was 6.00.

Question: CC(C)(C)NC(=O)C(=O)C(CC1CCNC1=O)NC(=O)[C@H](CC1CC1)NC(=O)/C=C/c1ccc(Cl)cc1F (stereo partly specified) [WO2022129953, Example 5] was tested. Which pIC50 did it give?
Answer: Its pIC50 is 6.30.

Question: NC(=O)C(=O)C(CC1CC1)NC(=O)[C@H](CC1CC1)NC(=O)/C=C/c1ccccc1 (stereo partly specified) [WO2022129953, Example 6] was tested. Which pIC50 did it give?
Answer: Its pIC50 is 5.30.

Question: How did the pIC50 turn out when NC(=O)C(=O)C(CC1CCCC1)NC(=O)[C@H](CC1CC1)NC(=O)/C=C/c1ccccc1 (stereo partly specified) [WO2022129953, Example 7] was run?
Answer: The pIC50 was 5.10.

Question: How did the pIC50 turn out when CC(C)(C)C[C@H](NC(=O)/C=C/c1ccc(Cl)cc1Cl)C(=O)NC(C[C@@H]1CCNC1=O)C(=O)C(=O)C#N (stereo partly specified) [WO2022129953, Example 9] was run?
Answer: The pIC50 was 6.40.

Question: With CC(C)(C)C[C@H](NC(=O)/C=C/c1ccc(Cl)cc1Cl)C(=O)NC(C[C@@H]1CCNC1=O)C(=O)C(=O)NC1CC1 (stereo partly specified) [WO2022129953, Example 10] as the molecule, how does the pIC50 read?
Answer: Its pIC50 is 8.20.

Question: How did the pIC50 turn out when CC(C)(C)C[C@H](NC(=O)/C=C/c1ccc(Cl)cc1F)C(=O)NC(C[C@@H]1CCNC1=O)C(=O)C(=O)NC1CC1 (stereo partly specified) [WO2022129953, Example 11] was run?
Answer: Its pIC50 is 8.10.

Question: C[C@@H](CC(=O)N[C@@H](CC(C)(C)C)C(=O)NC(C[C@@H]1CCNC1=O)C(=O)C(=O)NC1CC1)c1ccccc1 (stereo partly specified) [WO2022129953, Example 12] was tested. Which pIC50 did it give?
Answer: Its pIC50 is 7.80.

Question: C[C@H](CC(=O)N[C@@H](CC(C)(C)C)C(=O)NC(C[C@@H]1CCNC1=O)C(=O)C(=O)NC1CC1)c1ccccc1 (stereo partly specified) [WO2022129953, Example 13] was tested. Which pIC50 did it give?
Answer: The pIC50 was 7.80.

Question: With CC[C@@H](CC(=O)N[C@@H](CC(C)(C)C)C(=O)NC(C[C@@H]1CCNC1=O)C(=O)C(=O)NC1CC1)c1ccccc1 (stereo partly specified) [WO2022129953, Example 14] as the molecule, how does the pIC50 read?
Answer: The pIC50 was 8.10.

Question: CC[C@H](CC(=O)N[C@@H](CC(C)(C)C)C(=O)NC(C[C@@H]1CCNC1=O)C(=O)C(=O)NC1CC1)c1ccccc1 (stereo partly specified) [WO2022129953, Example 15] was tested. Which pIC50 did it give?
Answer: Its pIC50 is 8.00.

Question: CC(C)(C)C[C@H](NC(=O)C[C@@H](c1ccccc1)C(F)(F)F)C(=O)NC(C[C@@H]1CCNC1=O)C(=O)C(=O)NC1CC1 (stereo partly specified) [WO2022129953, Example 16] was tested. Which pIC50 did it give?
Answer: Its pIC50 is 7.70.

Question: With CC(C)(C)C[C@H](NC(=O)C[C@H](c1ccccc1)C(F)(F)F)C(=O)NC(C[C@@H]1CCNC1=O)C(=O)C(=O)NC1CC1 (stereo partly specified) [WO2022129953, Example 17] as the molecule, how does the pIC50 read?
Answer: Its pIC50 is 7.89.

Question: CC(C)C[C@H](NC(=O)/C=C/c1ccc(Cl)cc1F)C(=O)NC(C[C@@H]1CCNC1=O)C(=O)C(N)=O (stereo partly specified) [WO2022129953, Example 18] was tested. Which pIC50 did it give?
Answer: The pIC50 was 7.89.

Question: How did the pIC50 turn out when CCNC(=O)C(=O)C(C[C@@H]1CCNC1=O)NC(=O)[C@H](CC1CC1)NC(=O)/C=C/c1ccc(Cl)cc1F (stereo partly specified) [WO2022129953, Example 19] was run?
Answer: Its pIC50 is 7.89.

Question: NC(=O)C(=O)C(C[C@@H]1CCNC1=O)NC(=O)[C@H](CC1CC1)NC(=O)/C=C/c1ccc(Cl)cc1Cl (stereo partly specified) [WO2022129953, Example 20] was tested. Which pIC50 did it give?
Answer: Its pIC50 is 7.00.

Question: O=C(/C=C/c1ccc(Cl)cc1F)N[C@@H](CC1CC1)C(=O)NC(C[C@@H]1CCNC1=O)C(=O)C(=O)NC1CC1 (stereo partly specified) [WO2022129953, Example 21] was tested. Which pIC50 did it give?
Answer: Its pIC50 is 8.10 and 7.80.

Question: CC(C)(C)C[C@H](NC(=O)/C=C/c1ccc(Cl)cc1F)C(=O)NC(C[C@@H]1CCNC1=O)C(=O)C(N)=O (stereo partly specified) [WO2022129953, Example 22] was tested. Which pIC50 did it give?
Answer: The pIC50 was 8.20.

Question: With CCNC(=O)C(=O)C(C[C@@H]1CCNC1=O)NC(=O)[C@H](CC(C)(C)C)NC(=O)/C=C/c1ccc(Cl)cc1F (stereo partly specified) [WO2022129953, Example 23] as the molecule, how does the pIC50 read?
Answer: The pIC50 was 7.89.

Question: How did the pIC50 turn out when CCNC(=O)C(=O)C(C[C@@H]1CCNC1=O)NC(=O)[C@H](CC1CC1)NC(=O)/C=C/c1ccc(Cl)cc1Cl (stereo partly specified) [WO2022129953, Example 24] was run?
Answer: The pIC50 was 7.89.

Question: O=C(/C=C/c1ccc(Cl)cc1Cl)N[C@@H](CC1CC1)C(=O)NC(C[C@@H]1CCNC1=O)C(=O)C(=O)NC1CC1 (stereo partly specified) [WO2022129953, Example 25] was tested. Which pIC50 did it give?
Answer: The pIC50 was 8.00.

Question: CCNC(=O)C(=O)C(C[C@@H]1CCNC1=O)NC(=O)[C@H](CC(C)(C)C)NC(=O)/C=C/c1ccc(Cl)cc1Cl (stereo partly specified) [WO2022129953, Example 26] was tested. Which pIC50 did it give?
Answer: Its pIC50 is 8.00.

Question: CC(C)(C)C[C@H](NC(=O)/C=C/c1ccc(Cl)cc1Cl)C(=O)NC(C[C@@H]1CCNC1=O)C(=O)C(N)=O (stereo partly specified) [WO2022129953, Example 27] was tested. Which pIC50 did it give?
Answer: Its pIC50 is 8.10.

Question: O=C(N[C@@H](CC1CC1)C(=O)NC(C[C@@H]1CCNC1=O)C(=O)C(=O)NC1CC1)OCc1ccccc1 (stereo partly specified) [WO2022129953, Example 29] was tested. Which pIC50 did it give?
Answer: Its pIC50 is 7.80.

Question: With O=C(CCc1ccc(Cl)cc1Cl)N[C@@H](CC1CC1)C(=O)NC(C[C@@H]1CCNC1=O)C(=O)C(=O)NC1CC1 (stereo partly specified) [WO2022129953, Example 30] as the molecule, how does the pIC50 read?
Answer: The pIC50 was 7.70.

Question: How did the pIC50 turn out when O=C(/C=C/c1ccc(Cl)cc1F)N[C@@H](CC1CCC1)C(=O)NC(C[C@@H]1CCNC1=O)C(=O)C(=O)NC1CC1 (stereo partly specified) [WO2022129953, Example 31] was run?
Answer: Its pIC50 is 7.60.

Question: With CC[C@@H](CC(=O)N[C@@H](CC1CC1)C(=O)NC(C[C@@H]1CCNC1=O)C(=O)C(=O)NC1CC1)c1ccccc1 (stereo partly specified) [WO2022129953, Example 32] as the molecule, how does the pIC50 read?
Answer: The pIC50 was 7.89.

Question: CC[C@H](CC(=O)N[C@@H](CC1CC1)C(=O)NC(C[C@@H]1CCNC1=O)C(=O)C(=O)NC1CC1)c1ccccc1 (stereo partly specified) [WO2022129953, Example 33] was tested. Which pIC50 did it give?
Answer: The pIC50 was 7.60.
